{
  "source": "patent US10570426B2",
  "about": "“Method for producing methacrylic acid ester and novel methacrylic acid ester synthetase” (Mitsubishi Chemical Corporation, priority 2014, dated 2020)",
  "key": {"[1]": {"test_system": "AAT derived from Chamaemelum nobile", "assay": "Substrate specificity of AAT derived from Chamaemelum nobile", "format": "biochemical", "conditions": "0.12 mM acyl-CoA, pH 8.5, butyl methacrylate = 100%; for Relative activity with ethanol: 40 mM ethanol; for Relative activity with n-butanol: 40 mM n-butanol; for Relative activity with n-hexanol: 40 mM n-hexanol; for Relative activity with methanol: 40 mM methanol", "description": "The substrate specificity of AAT was evaluated by the purified fraction obtained by MonoQ 5/50 GL column chromatography in Example 9.\nIn a 2-mL capacity screw vial, a reaction solution (50 mM Tris-HCl (pH 8.5), 40 mM alcohol, 0.12 mM acyl-CoA) was prepared, into which the purified fraction was added to be 500 μL. The vial was sealed and the mixture was reacted at 30° C. for one hour.\nAfter the reaction was completed, 50 μL of 10 mM 2-hexanon was added as the internal sstandard, and solvent extraction was conducted using 200 μL octane or hexane. Centrifugation was conducted and 8 μL of the separated liquid was injected into GC to measure the ester produced through the enzymatic reaction. The amount of ester was calculated by the calibration curve using an internal standard method. The GC measuring conditions were set the same as in Example 9 except that the column temperature was adjusted appropriately for each of the target esters (see Table 4). To determine the quantity of n-butyl propionate, since the present column is unable to separate its peak from the peak of n-butanol, the absolute calibration curve method was employed under the GC-MS analysis conditions the same as in Example 1 (however, temperature conditions were changed to 80° C.→1 min→10° C./min→200° C.·5 min).\nRelative activity values are shown based on the specific activity of butyl methacrylate set as 100%."}, "[2]": {"test_system": "AAT derived from Chamaemelum nobile", "assay": "Km of AAT derived from Chamaemelum nobile", "format": "biochemical", "conditions": "40 mM n-hexanol, Tris-HCl pH 8.5, 30° C., 2 hours", "description": "The Km values for methacrylyl-CoA and acetyl-CoA were measured using the purified fraction obtained by MonoQ 5/50 GL column chromatography in Example 9. A 500 μL reaction solution was prepared by adding the purified fraction, 40 mM n-hexanol and methacrylyl-CoA or acetyl-CoA at each concentration to a 50 mM Tris-HCl buffer (pH 8.5). The vial was sealed, and reaction was carried out at 30° C. for 2 hours.\nAfter the reaction was completed, the same GC analysis as in Example 10 was conducted to measure the ester produced in the enzymatic reaction. The […] (Km) was applied to a Michaelis-Menten expression to calculate the values using a Kaleidagraph software made by HULINKS."}},
  "data": [
    {"smiles": "CC(C)C(=O)SCCNC(=O)CCNC(=O)[C@H](O)C(C)(C)COP(=O)(O)OP(=O)(O)OC[C@H]1O[C@@H](n2cnc3c(N)ncnc32)[C@H](O)[C@@H]1OP(=O)(O)O", "note": "[isobutyryl-CoA]", "values": [
      {"measurement": "Relative activity with ethanol", "setting": "[1]", "value": 5, "unit": "%"},
      {"measurement": "Relative activity with n-butanol", "setting": "[1]", "value": 114, "unit": "%"}
    ]},
    {"smiles": "CC(=O)SCCNC(=O)CCNC(=O)[C@H](O)C(C)(C)COP(=O)(O)OP(=O)(O)OC[C@H]1O[C@@H](n2cnc3c(N)ncnc32)[C@H](O)[C@@H]1OP(=O)(O)O", "note": "[acetyl-CoA]", "values": [
      {"measurement": "Relative activity with n-butanol", "setting": "[1]", "value": 37, "unit": "%"},
      {"measurement": "Relative activity with n-hexanol", "setting": "[1]", "value": 84, "unit": "%"},
      {"measurement": "Km", "setting": "[2]", "value": 711, "unit": "µM"}
    ]},
    {"smiles": "CCC(=O)SCCNC(=O)CCNC(=O)[C@H](O)C(C)(C)COP(=O)(O)OP(=O)(O)OC[C@H]1O[C@@H](n2cnc3c(N)ncnc32)[C@H](O)[C@@H]1OP(=O)(O)O", "note": "[propionyl-CoA]", "values": [
      {"measurement": "Relative activity with methanol", "setting": "[1]", "value": 4, "unit": "%"},
      {"measurement": "Relative activity with n-butanol", "setting": "[1]", "value": 136, "unit": "%"}
    ]},
    {"smiles": "C=C(C)C(=O)SCCNC(=O)CCNC(=O)[C@H](O)C(C)(C)COP(=O)(O)OP(=O)(O)OC[C@H]1O[C@@H](n2cnc3c(N)ncnc32)[C@H](O)[C@@H]1OP(=O)(O)O", "note": "[methacrylyl-CoA]", "values": [
      {"measurement": "Relative activity with ethanol", "setting": "[1]", "value": 4, "unit": "%"},
      {"measurement": "Relative activity with methanol", "setting": "[1]", "value": 1, "unit": "%"},
      {"measurement": "Relative activity with n-butanol", "setting": "[1]", "value": 100, "unit": "%"},
      {"measurement": "Relative activity with n-hexanol", "setting": "[1]", "value": 182, "unit": "%"},
      {"measurement": "Km", "setting": "[2]", "value": 41, "unit": "µM"}
    ]},
    {"smiles": "CCCCCC(=O)SCCNC(=O)CCNC(=O)[C@H](O)C(C)(C)COP(=O)(O)OP(=O)(O)OC[C@H]1O[C@@H](n2cnc3c(N)ncnc32)[C@H](O)[C@@H]1OP(=O)(O)O", "note": "[hexanoyl-CoA]", "values": [
      {"measurement": "Relative activity with ethanol", "setting": "[1]", "value": 11, "unit": "%"},
      {"measurement": "Relative activity with n-butanol", "setting": "[1]", "value": 21, "unit": "%"}
    ]},
    {"smiles": "CCCC(=O)SCCNC(=O)CCNC(=O)[C@H](O)C(C)(C)COP(=O)(O)OP(=O)(O)OC[C@H]1O[C@@H](n2cnc3c(N)ncnc32)[C@H](O)[C@@H]1OP(=O)(O)O", "note": "[butyryl-CoA]", "values": [
      {"measurement": "Relative activity with n-butanol", "setting": "[1]", "value": 40, "unit": "%"}
    ]}
  ]
}
